Numbered stars: 1 amine (or outer) side, 2 acyl side, 3 side chain; on linkers, the order of the positions; unused ones are H or OH. Bridge positions count the residues as written; N and C are the ends. Square brackets hold non-standard residues; d marks the D form. Peptide text beside a SMILES is read from it. Trp(βS-Me,7-OMe) = COc1cccc2c([C@H](C)[C@H](N)C(=O)O)c[nH]c12; Trp(7-CN) = N#Cc1cccc2c(C[C@H](N)C(=O)O)c[nH]c12; Trp(7-Cl) = N[C@@H](Cc1c[nH]c2c(Cl)cccc12)C(=O)O; Phe(3-CONH2) = NC(=O)c1cccc(C[C@H](N)C(=O)O)c1; Phe(4-CONH2) = NC(=O)c1ccc(C[C@H](N)C(=O)O)cc1; Phe(4-COOH) = N[C@@H](Cc1ccc(C(=O)O)cc1)C(=O)O; 4Pal(3S-Me) = C[C@@H](c1ccncc1)[C@H](N)C(=O)O; Trp(7-aza) = N[C@@H](Cc1c[nH]c2ncccc12)C(=O)O; Pip(5R-OH) = O=C(O)[C@@H]1CC[C@@H](O)CN1; αMeW = C[C@](N)(Cc1c[nH]c2ccccc12)C(=O)O; X1 = O=C([C@@H]1CC[C@H](N[*:1])C1)[*:2]; Pip(4-aza) = O=C(O)[C@@H]1CNCCN1; 4Pal = N[C@@H](Cc1ccncc1)C(=O)O; Gly(cBu) = N[C@H](C(=O)O)C1CCC1; NMeE = CN[C@@H](CCC(=O)O)C(=O)O; dHyp = O=C(O)[C@H]1C[C@H](O)CN1; Cit = NC(=O)NCCC[C@H](N)C(=O)O; Gly(N-CH2CH2OH) = O=C(O)CNCCO; Ahp(2) = CCCCC[C@H](N)C(=O)O; αMeS = C[C@](N)(CO)C(=O)O; Nle = CCCC[C@H](N)C(=O)O; Sar = CNCC(=O)O
Key:
[1] = biological target: T1, human soluble TNFR1 (sTNFR1) (Homo sapiens, UniProt P19438); assay: Human sTNFR1-peptide displacement assay (LanthaScreen Eu TR-FRET binding assay)
T1 construct: made in house; host or cells: Sf21 (baculovirus)
T1 sequence (P19438 with tags, fused parts or gaps): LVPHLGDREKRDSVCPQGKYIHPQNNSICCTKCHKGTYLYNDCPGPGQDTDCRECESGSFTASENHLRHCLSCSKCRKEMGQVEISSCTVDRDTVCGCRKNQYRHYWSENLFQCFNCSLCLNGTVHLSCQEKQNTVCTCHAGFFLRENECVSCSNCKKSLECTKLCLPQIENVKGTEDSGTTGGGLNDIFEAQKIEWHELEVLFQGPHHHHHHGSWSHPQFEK
Summary of the method: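 Readout is the 665/615 nm TR-FRET ratio (Eu anti-His donor, streptavidin-Alexa647 acceptor), normalized to DMSO and saturating displacer, fit by Morrison-based five-parameter logistic for Kd^app. His-tagged sTNFR1 (1-211) prebound to 100 nM biotinylated peptide SEQ ID NO.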

[2] = biological target: T2, human TNFR1 extracellular domain (ECD) protein (Homo sapiens, UniProt P19438); assay: SPR binding affinity to captured human TNFR1 ECD
T2 construct: HRV 3C protease cleavage site (C); 6His (C, cleaved yes); made in house; host or cells: Sf21 insect cells (baculovirus), secreted
T2 sequence (P19438 30-211): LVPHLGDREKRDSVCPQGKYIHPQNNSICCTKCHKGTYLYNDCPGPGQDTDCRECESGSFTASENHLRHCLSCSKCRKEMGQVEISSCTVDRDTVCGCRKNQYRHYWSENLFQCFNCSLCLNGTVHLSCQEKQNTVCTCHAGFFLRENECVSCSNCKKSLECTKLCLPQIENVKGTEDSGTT
Summary of the method: (§1)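 SPR kinetics: peptides over captured avi-biotinylated receptor ECDs, TNFR1 for affinity, TNFR2 run in parallel for off-target binding. Running buffer HEPES pH 7.4 with 150 mM NaCl, 3 mM EDTA, 0.05% P20, 2% DMSO; surface regenerated between analytes. Affinity derived from kon/koff.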

human TNFR2 ECD protein = biological target: T3, human TNFR2 ECD protein (Homo sapiens, UniProt P20333); assay: SPR off-target binding (selectivity) to human TNFR2 ECD
T3 construct: HRV 3C protease cleavage site (C); 6His (C, cleaved yes); made in house; host or cells: Sf21 insect cells (baculovirus), secreted
T3 sequence (P20333 23-257): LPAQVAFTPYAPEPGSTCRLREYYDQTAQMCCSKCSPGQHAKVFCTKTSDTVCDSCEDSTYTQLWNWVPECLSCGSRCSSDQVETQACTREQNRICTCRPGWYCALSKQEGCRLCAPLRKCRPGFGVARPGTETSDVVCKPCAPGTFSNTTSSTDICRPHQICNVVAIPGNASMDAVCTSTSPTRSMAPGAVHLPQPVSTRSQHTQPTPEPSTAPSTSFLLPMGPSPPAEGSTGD
Summary of the method: as §1

Compound	Kd [1]	Kd [2]	Kd (human TNFR2 ECD protein)
COc1cccc2c([C@H](C)[C@@H]3NC(=O)CN(C)C(=O)[C@H](Cc4cccc(C(N)=O)c4)NC(=O)[C@H](Cc4ccc(C(=O)O)cc4)NC(=O)[C@](C)(CO)NC(=O)[C@H](Cc4c[nH]c5c(Cl)cccc45)NC(=O)[C@H](Cc4ccncc4)NC(=O)[C@H](CC(N)=O)NC(=O)[C@H]4C[C@H](O)CN4C(=O)[C@H](Cc4c[nH]c5ccccc45)NC(=O)[C@@H]4CC[C@@H](O)CN4C(=O)[C@H](Cc4ccncc4)NC(=O)[C@H](CCCNC(N)=O)NC(=O)[C@@H]4CC[C@@H](C4)NC3=O)c[nH]c12 [SEQ ID NO. 54] (cyclo([4Pal][Trp(7-Cl)][αMeS][Phe(4-COOH)][Phe(3-CONH2)][Sar][Trp(βS-Me,7-OMe)][X1][Cit][4Pal][Pip(5R-OH)]W[dHyp]N))	0.24 nM	0.07 nM	> 1000 nM
CCCC[C@@H]1NC(=O)CSC[C@@H](C(N)=O)NC(=O)[C@](C)(Cc2c[nH]c3ccccc23)NC(=O)CN(C)C(=O)[C@H](Cc2ccc(O)cc2)NC(=O)[C@H](Cc2ccc(C(=O)O)cc2)NC(=O)[C@](C)(CO)NC(=O)[C@H](Cc2c[nH]c3c(Cl)cccc23)NC(=O)[C@H](Cc2ccncc2)NC(=O)[C@H](CC(N)=O)NC(=O)[C@H](CCC(=O)O)N(C)C(=O)[C@H](Cc2c[nH]c3ncccc23)NC(=O)[C@H](C2CCC2)NC(=O)[C@H](Cc2ccncc2)NC1=O [SEQ ID NO. 56] ({CH2CO}-[Nle][4Pal][Gly(cBu)][Trp(7-aza)][NMeE]N[4Pal][Trp(7-Cl)][αMeS][Phe(4-COOH)]Y[Sar][αMeW]C-NH2; thioether N-14)	2 nM	27.2 nM	> 1000 nM
CCCCC[C@@H]1NC(=O)[C@@H]2CC[C@@H](C2)NC(=O)[C@H]([C@@H](C)c2c[nH]c3c(OC)cccc23)NC(=O)CN(C)C(=O)[C@H](Cc2ccc(C(N)=O)cc2)NC(=O)[C@H](Cc2ccc(C(N)=O)cc2)NC(=O)[C@](C)(CO)NC(=O)[C@H](Cc2c[nH]c3c(C#N)cccc23)NC(=O)[C@H](Cc2ccc(C(=O)O)cc2)NC(=O)[C@H](CC(N)=O)NC(=O)[C@H]2C[C@H](O)CN2C(=O)[C@H](Cc2c[nH]c3ccccc23)NC(=O)[C@H](CCC(N)=O)NC(=O)[C@H]([C@@H](C)c2ccncc2)NC1=O [SEQ ID NO. 70] (cyclo([Ahp(2)][4Pal(3S-Me)]QW[dHyp]N[Phe(4-COOH)][Trp(7-CN)][αMeS][Phe(4-CONH2)][Phe(4-CONH2)][Sar][Trp(βS-Me,7-OMe)][X1]))	0.12 nM	0.07 nM	> 1000 nM
CCCC[C@@H]1NC(=O)[C@@H]2CC[C@@H](C2)NC(=O)[C@H]([C@@H](C)c2c[nH]c3c(OC)cccc23)NC(=O)CN(C)C(=O)[C@H](Cc2ccc(O)cc2)NC(=O)[C@H](Cc2ccc(C(=O)O)cc2)NC(=O)[C@](C)(CO)NC(=O)[C@H](Cc2c[nH]c3c(Cl)cccc23)NC(=O)[C@H](Cc2ccncc2)NC(=O)[C@H](CC(N)=O)NC(=O)CN(CCO)C(=O)[C@H](Cc2c[nH]c3ccccc23)NC(=O)[C@@H]2CNCCN2C(=O)[C@H](Cc2ccncc2)NC1=O [SEQ ID NO. 72] (cyclo([4Pal][Trp(7-Cl)][αMeS][Phe(4-COOH)]Y[Sar][Trp(βS-Me,7-OMe)][X1][Nle][4Pal][Pip(4-aza)]W[Gly(N-CH2CH2OH)]N))	0.09 nM	0.05 nM	> 1000 nM

Reference: US20240287138A1, “CYCLIC PEPTIDES FOR INHIBITING TNF RECEPTOR 1 ACTIVITY” (Merck Sharp & Dohme LLC, priority 2023, published 2024)
